Data from patent USRE48335E1, “Polymyxin derivatives as antimicrobial compounds” (priority 2014, dated 2020).
Values after ≈ are worked out from the molar mass of the structure shown. Positions of bridges follow the written chain, without caps; N, C: chain ends. Non-standard residues stand in square brackets, D forms with d. Residues, ends and D or L forms follow the SMILES beside them. *: point of attachment. Lauroyl = CCCCCCCCCCCC(=O)*; X32 = Cc1ccc(C(=O)*)c(Cl)c1; Decanoyl = CCCCCCCCCC(=O)*; Nonanoyl = CCCCCCCCC(=O)*; dNva = CCC[C@@H](N)C(=O)O; Octanoyl = CCCCCCCC(=O)*; X25 = Cc1cccc(C(=O)*)c1C; Dab = NCC[C@H](N)C(=O)O; Abu = CC[C@H](N)C(=O)O; Dap = NC[C@H](N)C(=O)O; X34 = Cc1ccccc1CC(=O)*

Assays:
Acinetobacter baumannii = system: Acinetobacter baumannii
Description: (§1) MICs of the lipopeptides (trifluoroacetic acid salt, TFA) were determined by broth microdilution in cation-adjusted Mueller-Hinton broth (CAMHB) (Oxoid Australia, Thebarton, SA, Australia) according to Clinical and Laboratory Standards Institute standards (Clinical and Laboratory Standards Institute. Performance standards for antimicrobial susceptibility testing; eighteenth informational supplement M100-S18. Wayne, Pa., 2008). Polymyxin B (sulphate) was employed as control. […]

Enterobacter cloacae = system: Enterobacter cloacae
Description: as §1

Pseudomonas aeruginosa = system: Pseudomonas aeruginosa
Description: as §1

Structure (SMILES): CC[C@@H]1NC(=O)[C@@H](CC(C)C)NC(=O)[C@H](CCN)NC(=O)[C@@H](NC(=O)[C@H](CN)NC(=O)[C@@H](NC(=O)[C@H](CCN)NC(=O)c2ccc(C)cc2Cl)[C@@H](C)O)CCNC(=O)[C@H]([C@@H](C)O)NC(=O)[C@H](CCN)NC(=O)[C@H](CCN)NC1=O [Compound 101] (X32-[Dab]T[Dap][Dab][Dab][dL][Abu][Dab][Dab]T; lactam 4-C)
- Minimum inhibitory concentration, Ab A ATCC 17978 (Acinetobacter baumannii): 0.5 µg/mL (≈ 0.439 µM)
- Minimum inhibitory concentration, Ab ATCC 19606 (Acinetobacter baumannii): 0.5 µg/mL (≈ 0.439 µM)
- Minimum inhibitory concentration, Ab FADDI-AB034 (Acinetobacter baumannii): 1 µg/mL (≈ 0.877 µM)
- Minimum inhibitory concentration, Ec FADDI-EC001 (Enterobacter cloacae): <0.125 µg/mL
- Minimum inhibitory concentration, Ec FADDI-EC003 (Enterobacter cloacae): <0.125 µg/mL
- Minimum inhibitory concentration, Ec FADDI-EC006 (Enterobacter cloacae): 0.25 µg/mL (≈ 0.219 µM)
- Minimum inhibitory concentration, Pa ATCC 27853 (Pseudomonas aeruginosa): 0.5 µg/mL (≈ 0.439 µM)
- Minimum inhibitory concentration, Pa FADDI-PA022 (Pseudomonas aeruginosa): 2 µg/mL (≈ 1.75 µM)
- Minimum inhibitory concentration, Pa FADDI-PA025 (Pseudomonas aeruginosa): 2 µg/mL (≈ 1.75 µM)

Structure (SMILES): CC[C@@H]1NC(=O)[C@@H](CC(C)C)NC(=O)[C@H](CCN)NC(=O)[C@@H](NC(=O)[C@H](CN)NC(=O)[C@@H](NC(=O)[C@H](CCN)NC(=O)Cc2ccccc2C)[C@@H](C)O)CCNC(=O)[C@H]([C@@H](C)O)NC(=O)[C@H](CCN)NC(=O)[C@H](CCN)NC1=O [Compound 76] (X34-[Dab]T[Dap][Dab][Dab][dL][Abu][Dab][Dab]T; lactam 4-C)
- Minimum inhibitory concentration, Ab A ATCC 17978 (Acinetobacter baumannii): 1 µg/mL (≈ 0.893 µM)
- Minimum inhibitory concentration, Ab ATCC 19606 (Acinetobacter baumannii): 2 µg/mL (≈ 1.79 µM)
- Minimum inhibitory concentration, Ab FADDI-AB034 (Acinetobacter baumannii): 1 µg/mL (≈ 0.893 µM)
- Minimum inhibitory concentration, Ec FADDI-EC001 (Enterobacter cloacae): 0.25 µg/mL (≈ 0.223 µM)
- Minimum inhibitory concentration, Ec FADDI-EC003 (Enterobacter cloacae): 0.25 µg/mL (≈ 0.223 µM)
- Minimum inhibitory concentration, Ec FADDI-EC006 (Enterobacter cloacae): 0.5 µg/mL (≈ 0.447 µM)
- Minimum inhibitory concentration, Pa ATCC 27853 (Pseudomonas aeruginosa): 0.5 µg/mL (≈ 0.447 µM)
- Minimum inhibitory concentration, Pa FADDI-PA022 (Pseudomonas aeruginosa): 1 µg/mL (≈ 0.893 µM)
- Minimum inhibitory concentration, Pa FADDI-PA025 (Pseudomonas aeruginosa): 4 µg/mL (≈ 3.57 µM)

Structure (SMILES): CCCCCCCC(=O)N[C@@H](CCN)C(=O)N[C@H](C(=O)N[C@@H](CN)C(=O)N[C@H]1CCNC(=O)[C@H]([C@@H](C)O)NC(=O)[C@H](CCN)NC(=O)[C@H](CCN)NC(=O)[C@H](CC)NC(=O)[C@@H](CCC)NC(=O)[C@H](CCN)NC1=O)[C@@H](C)O [Compound 69] (Octanoyl-[Dab]T[Dap][Dab][Dab][dNva][Abu][Dab][Dab]T; lactam 4-C)
- Minimum inhibitory concentration, Ab A ATCC 17978 (Acinetobacter baumannii): 0.5 µg/mL (≈ 0.455 µM)
- Minimum inhibitory concentration, Ab ATCC 19606 (Acinetobacter baumannii): 0.5 µg/mL (≈ 0.455 µM)
- Minimum inhibitory concentration, Ab FADDI-AB034 (Acinetobacter baumannii): 0.25 µg/mL (≈ 0.227 µM)
- Minimum inhibitory concentration, Ec FADDI-EC001 (Enterobacter cloacae): 0.25 µg/mL (≈ 0.227 µM)
- Minimum inhibitory concentration, Ec FADDI-EC003 (Enterobacter cloacae): <0.125 µg/mL
- Minimum inhibitory concentration, Ec FADDI-EC006 (Enterobacter cloacae): <0.125 µg/mL
- Minimum inhibitory concentration, Pa ATCC 27853 (Pseudomonas aeruginosa): 0.5 µg/mL (≈ 0.455 µM)
- Minimum inhibitory concentration, Pa FADDI-PA022 (Pseudomonas aeruginosa): 0.5 µg/mL (≈ 0.455 µM)
- Minimum inhibitory concentration, Pa FADDI-PA025 (Pseudomonas aeruginosa): 8 µg/mL (≈ 7.28 µM)

Structure (SMILES): CCCCCCCCC(=O)N[C@@H](CCN)C(=O)N[C@H](C(=O)N[C@H](CO)C(=O)N[C@H]1CCNC(=O)[C@H]([C@@H](C)O)NC(=O)[C@H](CCN)NC(=O)[C@H](CCN)NC(=O)[C@H]([C@@H](C)O)NC(=O)[C@@H](CC(C)C)NC(=O)[C@H](CCN)NC1=O)[C@@H](C)O [Compound 17] (Nonanoyl-[Dab]T[dS][Dab][Dab][dL]T[Dab][Dab]T; lactam 4-C)
- Minimum inhibitory concentration, Ab A ATCC 17978 (Acinetobacter baumannii): <0.125 µg/mL
- Minimum inhibitory concentration, Ab ATCC 19606 (Acinetobacter baumannii): <0.125 µg/mL
- Minimum inhibitory concentration, Ab FADDI-AB034 (Acinetobacter baumannii): 0.25 µg/mL (≈ 0.218 µM)
- Minimum inhibitory concentration, Ec FADDI-EC001 (Enterobacter cloacae): 0.25 µg/mL (≈ 0.218 µM)
- Minimum inhibitory concentration, Ec FADDI-EC003 (Enterobacter cloacae): 0.25 µg/mL (≈ 0.218 µM)
- Minimum inhibitory concentration, Ec FADDI-EC006 (Enterobacter cloacae): 0.5 µg/mL (≈ 0.437 µM)
- Minimum inhibitory concentration, Pa ATCC 27853 (Pseudomonas aeruginosa): 2 µg/mL (≈ 1.75 µM)
- Minimum inhibitory concentration, Pa FADDI-PA022 (Pseudomonas aeruginosa): 4 µg/mL (≈ 3.5 µM)
- Minimum inhibitory concentration, Pa FADDI-PA025 (Pseudomonas aeruginosa): 16 µg/mL (≈ 14 µM)

Structure (SMILES): CCCCCCCCCC(=O)N[C@@H](CCN)C(=O)N[C@H](C(=O)N[C@H](CO)C(=O)N[C@H]1CCNC(=O)[C@H]([C@@H](C)O)NC(=O)[C@H](CCN)NC(=O)[C@H](CCN)NC(=O)[C@H]([C@@H](C)O)NC(=O)[C@@H](CC(C)C)NC(=O)[C@H](CCN)NC1=O)[C@@H](C)O [Compound 9] (Decanoyl-[Dab]T[dS][Dab][Dab][dL]T[Dab][Dab]T; lactam 4-C)
- Minimum inhibitory concentration, Ab A ATCC 17978 (Acinetobacter baumannii): 1 µg/mL (≈ 0.863 µM)
- Minimum inhibitory concentration, Ab ATCC 19606 (Acinetobacter baumannii): 0.25 µg/mL (≈ 0.216 µM)
- Minimum inhibitory concentration, Ab FADDI-AB034 (Acinetobacter baumannii): 0.5 µg/mL (≈ 0.432 µM)
- Minimum inhibitory concentration, Ec FADDI-EC001 (Enterobacter cloacae): 0.5 µg/mL (≈ 0.432 µM)
- Minimum inhibitory concentration, Ec FADDI-EC003 (Enterobacter cloacae): 1 µg/mL (≈ 0.863 µM)
- Minimum inhibitory concentration, Ec FADDI-EC006 (Enterobacter cloacae): 1 µg/mL (≈ 0.863 µM)
- Minimum inhibitory concentration, Pa ATCC 27853 (Pseudomonas aeruginosa): 4 µg/mL (≈ 3.45 µM)
- Minimum inhibitory concentration, Pa FADDI-PA022 (Pseudomonas aeruginosa): 8 µg/mL (≈ 6.91 µM)
- Minimum inhibitory concentration, Pa FADDI-PA025 (Pseudomonas aeruginosa): 32 µg/mL (≈ 27.6 µM)

Structure (SMILES): CC[C@@H]1NC(=O)[C@@H](CC(C)C)NC(=O)[C@H](CCN)NC(=O)[C@@H](NC(=O)[C@H](CN)NC(=O)[C@@H](NC(=O)[C@H](CCN)NC(=O)c2cccc(C)c2C)[C@@H](C)O)CCNC(=O)[C@H]([C@@H](C)O)NC(=O)[C@H](CCN)NC(=O)[C@H](CCN)NC1=O [Compound 91] (X25-[Dab]T[Dap][Dab][Dab][dL][Abu][Dab][Dab]T; lactam 4-C)
- Minimum inhibitory concentration, Ab A ATCC 17978 (Acinetobacter baumannii): 1 µg/mL (≈ 0.893 µM)
- Minimum inhibitory concentration, Ab ATCC 19606 (Acinetobacter baumannii): 4 µg/mL (≈ 3.57 µM)
- Minimum inhibitory concentration, Ab FADDI-AB034 (Acinetobacter baumannii): 2 µg/mL (≈ 1.79 µM)
- Minimum inhibitory concentration, Ec FADDI-EC001 (Enterobacter cloacae): <0.125 µg/mL
- Minimum inhibitory concentration, Ec FADDI-EC003 (Enterobacter cloacae): <0.125 µg/mL
- Minimum inhibitory concentration, Ec FADDI-EC006 (Enterobacter cloacae): 0.5 µg/mL (≈ 0.447 µM)
- Minimum inhibitory concentration, Pa ATCC 27853 (Pseudomonas aeruginosa): 0.5 µg/mL (≈ 0.447 µM)
- Minimum inhibitory concentration, Pa FADDI-PA022 (Pseudomonas aeruginosa): 2 µg/mL (≈ 1.79 µM)
- Minimum inhibitory concentration, Pa FADDI-PA025 (Pseudomonas aeruginosa): 4 µg/mL (≈ 3.57 µM)

Structure (SMILES): CCCCCCCCCCCC(=O)N[C@@H](CCN)C(=O)N[C@H](C(=O)N[C@@H](CCN)C(=O)N[C@H]1CCNC(=O)[C@H]([C@@H](C)O)NC(=O)[C@H](CCN)NC(=O)[C@H](CCN)NC(=O)[C@H]([C@@H](C)O)NC(=O)[C@@H](CC(C)C)NC(=O)[C@H](CCN)NC1=O)[C@@H](C)O [Compound 28] (Lauroyl-[Dab]T[Dab][Dab][Dab][dL]T[Dab][Dab]T; lactam 4-C)
- Minimum inhibitory concentration, Ab A ATCC 17978 (Acinetobacter baumannii): 2 µg/mL (≈ 1.67 µM)
- Minimum inhibitory concentration, Ab ATCC 19606 (Acinetobacter baumannii): 2 µg/mL (≈ 1.67 µM)
- Minimum inhibitory concentration, Ab FADDI-AB034 (Acinetobacter baumannii): 1 µg/mL (≈ 0.834 µM)
- Minimum inhibitory concentration, Ec FADDI-EC001 (Enterobacter cloacae): 0.5 µg/mL (≈ 0.417 µM)
- Minimum inhibitory concentration, Ec FADDI-EC003 (Enterobacter cloacae): 0.5 µg/mL (≈ 0.417 µM)
- Minimum inhibitory concentration, Ec FADDI-EC006 (Enterobacter cloacae): 0.5 µg/mL (≈ 0.417 µM)
- Minimum inhibitory concentration, Pa ATCC 27853 (Pseudomonas aeruginosa): 2 µg/mL (≈ 1.67 µM)
- Minimum inhibitory concentration, Pa FADDI-PA022 (Pseudomonas aeruginosa): 4 µg/mL (≈ 3.33 µM)
- Minimum inhibitory concentration, Pa FADDI-PA025 (Pseudomonas aeruginosa): 4 µg/mL (≈ 3.33 µM)

Structure (SMILES): CCCCCCCCCCCC(=O)N[C@@H](CCN)C(=O)N[C@H](C(=O)N[C@H](CO)C(=O)N[C@H]1CCNC(=O)[C@H]([C@@H](C)O)NC(=O)[C@H](CCN)NC(=O)[C@H](CCN)NC(=O)[C@H]([C@@H](C)O)NC(=O)[C@@H](CC(C)C)NC(=O)[C@H](CCN)NC1=O)[C@@H](C)O [Compound 10] (Lauroyl-[Dab]T[dS][Dab][Dab][dL]T[Dab][Dab]T; lactam 4-C)
- Minimum inhibitory concentration, Ab A ATCC 17978 (Acinetobacter baumannii): 0.5 µg/mL (≈ 0.421 µM)
- Minimum inhibitory concentration, Ab ATCC 19606 (Acinetobacter baumannii): 1 µg/mL (≈ 0.843 µM)
- Minimum inhibitory concentration, Ab FADDI-AB034 (Acinetobacter baumannii): 1 µg/mL (≈ 0.843 µM)
- Minimum inhibitory concentration, Ec FADDI-EC001 (Enterobacter cloacae): 1 µg/mL (≈ 0.843 µM)
- Minimum inhibitory concentration, Ec FADDI-EC003 (Enterobacter cloacae): 0.5 µg/mL (≈ 0.421 µM)
- Minimum inhibitory concentration, Ec FADDI-EC006 (Enterobacter cloacae): 1 µg/mL (≈ 0.843 µM)
- Minimum inhibitory concentration, Pa ATCC 27853 (Pseudomonas aeruginosa): 2 µg/mL (≈ 1.69 µM)
- Minimum inhibitory concentration, Pa FADDI-PA022 (Pseudomonas aeruginosa): 4 µg/mL (≈ 3.37 µM)
- Minimum inhibitory concentration, Pa FADDI-PA025 (Pseudomonas aeruginosa): 4 µg/mL (≈ 3.37 µM)
